# Measured values taken from patent publication US8617906B2, “Identification and screening of triptolide target molecules” (priority 2004, dated 2013).
# Legend:
# [1] = biological target: T1, Protein Disulfide Isomerase (PG775) (Homo sapiens, UniProt P07237); experiment: Isolation of proteins binding 3H-triptolide in Jurkat cells; settings: 3H-labeled compound incubated with Jurkat cells
# T1 construct: endogenous in cells; host or cells: Jurkat
# Method: (§1) Triptolide target molecules were isolated and identified by purification and identification of molecules that bind ^3H-triptolide. Jurkat cells from expanding cultures were labeled with ^3H-triptolide by cultivation at 37° C. with 5% CO2 for a period of time between a few hours and overnight (usually 6-7 hours) and harvested by centrifugation and washing in ice-cold phosphate buffered saline. The cells (usually 1-3×10^6/ml) were generally labeled with ^3H-triptolide to a final concentration of 35 nM (100 μCi/200 ml of medium). Collected cell pellets were pooled, and the cells were either extracted and subjected to separation and purification at that time, or were frozen and stored at −20° C. as pellets for extraction and investigation at a later time.
# (§2) The cells were extracted with M-per buffer (Pierce) and homogenized in presence of a protease inhibitor cocktail, sometimes including other reagents such as deoxyribonuclease (DNase). […] When the extracts components were found not to be sufficiently purified, enriched or reduced in number, 2D gel electrophoresis was employed, followed by fluorography for ^3H-associated radioactivity detection, and MALDI/MS of the corresponding peptides (after proteolysis) and peptide fingerprinting. […]
# [2] = biological target: T2, 14-3-3 ε (PG773) (Homo sapiens, UniProt P62258); experiment: as above; settings: 3H-labeled compound incubated with Jurkat cells
# T2 construct: endogenous in cells; host or cells: Jurkat
# Method: as §1, with “Collected cell pellets were pooled, and the cells were either extracted and subjected to separation and purification at that time, or were frozen and stored at −20° C. as pellets for extraction and investigation at a later time.” left out
# as §2
# MALDI-MS peptide fingerprinting analysis identified HSP 90β (PG771) in fraction #4 and L-plastin (PG772) in fraction #9. […] A positive spot on the film (fluorographically positive, therefore positive for ^3H-associated radioactivity) was seen near the 29 kDa protein marker. […]
# [3] = biological target: T3, Vimentin (PG778) (Homo sapiens, UniProt P08670); experiment: as above; settings: 3H-labeled Jurkat cell extract
# T3 construct: endogenous in cells; host or cells: Jurkat
# Method: as §1, §2
# [4] = test system: human T cell lymphoma (Jurkat) cells; settings: cited from earlier work
# T1 sequence (P07237 18-508): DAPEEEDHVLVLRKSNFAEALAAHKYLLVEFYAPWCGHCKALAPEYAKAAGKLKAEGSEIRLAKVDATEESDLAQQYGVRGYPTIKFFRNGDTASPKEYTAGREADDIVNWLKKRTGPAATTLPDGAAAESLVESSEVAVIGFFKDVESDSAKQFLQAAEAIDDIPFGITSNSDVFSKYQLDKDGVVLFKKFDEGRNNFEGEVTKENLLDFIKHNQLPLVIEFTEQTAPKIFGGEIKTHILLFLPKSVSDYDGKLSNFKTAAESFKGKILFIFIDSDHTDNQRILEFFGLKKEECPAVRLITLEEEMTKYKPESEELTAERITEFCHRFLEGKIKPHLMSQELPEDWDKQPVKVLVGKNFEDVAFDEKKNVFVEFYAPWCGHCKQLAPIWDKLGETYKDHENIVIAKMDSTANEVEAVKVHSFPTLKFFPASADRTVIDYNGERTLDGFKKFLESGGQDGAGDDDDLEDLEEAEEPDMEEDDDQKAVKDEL
# T2 sequence (P62258 whole entry): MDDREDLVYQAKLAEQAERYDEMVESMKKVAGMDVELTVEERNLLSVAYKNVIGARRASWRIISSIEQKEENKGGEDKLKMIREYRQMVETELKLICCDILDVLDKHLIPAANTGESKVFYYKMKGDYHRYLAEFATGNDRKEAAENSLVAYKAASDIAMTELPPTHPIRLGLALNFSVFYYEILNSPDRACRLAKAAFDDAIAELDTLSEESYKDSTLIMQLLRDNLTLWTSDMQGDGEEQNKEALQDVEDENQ
# T3 sequence (P08670 whole entry): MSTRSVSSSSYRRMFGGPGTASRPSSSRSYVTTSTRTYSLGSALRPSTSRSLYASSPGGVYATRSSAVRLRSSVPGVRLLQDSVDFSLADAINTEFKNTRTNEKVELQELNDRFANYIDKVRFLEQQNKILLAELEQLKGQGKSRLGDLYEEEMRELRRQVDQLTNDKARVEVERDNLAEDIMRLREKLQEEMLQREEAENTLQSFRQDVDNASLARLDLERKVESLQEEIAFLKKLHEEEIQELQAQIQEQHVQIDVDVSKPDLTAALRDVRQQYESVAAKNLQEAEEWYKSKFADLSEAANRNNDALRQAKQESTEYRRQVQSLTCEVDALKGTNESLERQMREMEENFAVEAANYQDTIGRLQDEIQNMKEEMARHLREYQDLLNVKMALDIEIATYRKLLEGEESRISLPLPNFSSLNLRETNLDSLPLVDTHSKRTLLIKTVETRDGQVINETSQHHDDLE
structure (smiles),measurement,setting,value
CC(C)[C@]12O[C@H]1[C@@H]1O[C@]13[C@]1(O[C@H]1C[C@H]1C4=C(CC[C@@]13C)C(=O)OC4)[C@@H]2O [triptolide],3H-associated protein identified as triptolide target: Protein Disulfide Isomerase,[1],identified
same,3H-associated protein identified as triptolide target: 14-3-3 ε,[2],identified
same,3H-associated protein identified as triptolide target: Vimentin,[3],identification
same,cytotoxicity,[4],cytotoxicity in human T cell lymphoma (Jurkat) cells
